T/C data for 18 compounds are collected here from PubChem BioAssay AID256 (DTP/NCI, 2004).

Molecules are shown by their SMILES. Several values for one entry are separate records, joined by “and”; a condition that tells them apart may be missing. Equal values may be shown once. Inconclusive results and toxic doses are left out.

This assay deals with CD2F1 mice, L1210 leukemia ip, survival T/C. In words: NCI In Vivo Anticancer Drug Screen. Data for tumor model L1210 Leukemia (intraperitoneal) in CD2F1 (CDF1) mice. Conditions: higher = longer survival. The method, boiled down:
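Implant tumor; dose compound or vehicle; measure endpoint in both groups; report treated divided by control.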

[1] abbreviates: endpoint: mean survival time, dose: 100.0 mg/kg/injection, schedule: Q04DX003 (ip), vehicle: saline.
Setting [2] is: endpoint: mean survival time, dose: 200.0 mg/kg/injection, schedule: Q04DX003 (ip), vehicle: saline.
The mark [3] stands for this setting: endpoint: mean survival time, dose: 100.0 mg/kg/injection, schedule: Q01DX001 (ip), vehicle: saline with Tween-80.
Setting [4] is: endpoint: mean survival time, dose: 200.0 mg/kg/injection, schedule: Q01DX001 (ip), vehicle: saline with Tween-80.
Where [5] appears, read: endpoint: mean survival time, dose: 400.0 mg/kg/injection, schedule: Q01DX001 (ip), vehicle: saline with Tween-80.
The mark [6] stands for this setting: endpoint: mean survival time, dose: 50.0 mg/kg/injection, schedule: Q01DX009 (ip), vehicle: saline with Tween-80.
The mark [7] stands for this setting: endpoint: mean survival time, dose: 100.0 mg/kg/injection, schedule: Q01DX009 (ip), vehicle: saline with Tween-80.
The mark [8] stands for this setting: endpoint: mean survival time, dose: 100.0 mg/kg/injection, schedule: Q04DX003 (ip), vehicle: saline with Tween-80.
Setting [9] is: endpoint: mean survival time, dose: 200.0 mg/kg/injection, schedule: Q04DX003 (ip), vehicle: saline with Tween-80.
[10] abbreviates: endpoint: mean survival time, dose: 25.0 mg/kg/injection, schedule: Q01DX009 (ip), vehicle: Klucel (hydroxypropylcellulose) (HPC).
Where [11] appears, read: endpoint: mean survival time, dose: 50.0 mg/kg/injection, schedule: Q01DX009 (ip), vehicle: Klucel (hydroxypropylcellulose) (HPC).

Turning to `O=C(O)C1OC12CCCCC2` (stereo not drawn), the T/C is, setting by setting: (endpoint: mean survival time, dose: 100.0 mg/kg/injection, schedule: Q01DX009 (ip), vehicle: saline) 96 % of control; under setting [1], 100 % of control; (endpoint: mean survival time, dose: 200.0 mg/kg/injection, schedule: Q01DX009 (ip), vehicle: saline) 101 % of control; under setting [2], 101 % of control; (endpoint: mean survival time, dose: 400.0 mg/kg/injection, schedule: Q01DX009 (ip), vehicle: saline) 100 % of control; (endpoint: mean survival time, dose: 400.0 mg/kg/injection, schedule: Q04DX003 (ip), vehicle: saline) 103 % of control.

Regarding `CC(NC(=O)CCl)C(=O)O` (stereo not drawn), the T/C under setting [1] was 94 % of control and the T/C under setting [2] is 100 % of control.

Take `C(#Cc1ccccc1)/C=C/C(=C\c1ccccc1)c1ccccc1`: the T/C is, setting by setting: under setting [3], 92 % of control; under setting [4], 89 % of control; under setting [5], 87 % of control.

`COc1ccc(/C=N/NC(=O)CNC(=O)Nc2ccc(F)cc2)cc1OC`: the T/C under setting [6] was 96 % of control; the T/C under setting [7] was 92 % of control; the T/C (endpoint: mean survival time, dose: 200.0 mg/kg/injection, schedule: Q01DX009 (ip), vehicle: saline with Tween-80) is 92 % of control.

For `CO[C@]12[C@@H](COC(N)=O)C3=C(C(=O)C(C)=C(NCC4CCCO4)C3=O)N1C[C@@H]1[C@H]2N1C` (stereo partly drawn), the T/C runs as follows: (endpoint: mean survival time, dose: 1.5 mg/kg/injection, schedule: Q01DX001 (ip), vehicle: saline with Tween-80) 102 % of control; (endpoint: mean survival time, dose: 3.0 mg/kg/injection, schedule: Q01DX001 (ip), vehicle: saline with Tween-80) 98 % of control; (endpoint: mean survival time, dose: 6.0 mg/kg/injection, schedule: Q01DX001 (ip), vehicle: saline with Tween-80) 104 % of control; (endpoint: mean survival time, dose: 12.0 mg/kg/injection, schedule: Q01DX001 (ip), vehicle: saline with Tween-80) 104 % of control; (endpoint: mean survival time, dose: 24.0 mg/kg/injection, schedule: Q01DX001 (ip), vehicle: distilled water + Tween-80) 114 % of control; (endpoint: mean survival time, dose: 24.0 mg/kg/injection, schedule: Q01DX001 (ip), vehicle: saline with Tween-80) 116 % of control. Further, the T/C (endpoint: mean survival time, dose: 25.0 mg/kg/injection, schedule: Q01DX001 (ip), vehicle: distilled water + Tween-80) is 121 % of control; the T/C (endpoint: mean survival time, dose: 48.0 mg/kg/injection, schedule: Q01DX001 (ip), vehicle: distilled water + Tween-80) is 124 % of control; the T/C (endpoint: mean survival time, dose: 100.0 mg/kg/injection, schedule: Q01DX001 (ip), vehicle: distilled water + Tween-80) was 113 % of control.

Turning to `N=c1ccn2c(n1)OC1C(O)C(CO)OC12` (stereo not drawn), the T/C (endpoint: mean survival time, dose: 37.5 mg/kg/injection, schedule: Q01DX005 (ip), vehicle: saline) was 151 % of control; the T/C (endpoint: mean survival time, dose: 53.0 mg/kg/injection, schedule: Q01DX009 (ip), vehicle: saline) was 246 % of control; the T/C (endpoint: mean survival time, dose: 75.0 mg/kg/injection, schedule: Q01DX005 (ip), vehicle: saline) was 152 % of control and 173 % of control; the T/C (endpoint: mean survival time, dose: 79.0 mg/kg/injection, schedule: Q01DX009 (ip), vehicle: saline) was 247 % of control; the T/C (endpoint: mean survival time, dose: 100.0 mg/kg/injection, schedule: Q04DX002 (ip), vehicle: saline with Tween-80) was 151 % of control; the T/C (endpoint: mean survival time, dose: 119.0 mg/kg/injection, schedule: Q01DX009 (ip), vehicle: saline) is 331 % of control. The T/C was 160 % of control and 171 % of control (endpoint: mean survival time, dose: 150.0 mg/kg/injection, schedule: Q01DX005 (ip), vehicle: saline); 341 % of control (endpoint: mean survival time, dose: 178.0 mg/kg/injection, schedule: Q01DX009 (ip), vehicle: saline); 158 % of control (endpoint: mean survival time, dose: 200.0 mg/kg/injection, schedule: Q04DX002 (ip), vehicle: saline with Tween-80); 205 % of control and 221 % of control (endpoint: mean survival time, dose: 300.0 mg/kg/injection, schedule: Q01DX005 (ip), vehicle: saline); 205 % of control (endpoint: mean survival time, dose: 400.0 mg/kg/injection, schedule: Q04DX002 (ip), vehicle: saline with Tween-80); 271 % of control and 274 % of control (endpoint: mean survival time, dose: 600.0 mg/kg/injection, schedule: Q01DX005 (ip), vehicle: saline). In addition, the T/C (endpoint: median survival time, dose: 200.0 mg/kg/injection, schedule: Q01DX009 (ip), vehicle: water) was 375 % of control; the T/C (endpoint: median survival time, dose: 500.0 mg/kg/injection, schedule: Q01DX009 (ip), vehicle: water) is 93 % of control; the T/C (endpoint: median survival time, dose: 600.0 mg/kg/injection, schedule: Q01DX009 (ip), vehicle: water) is 105 % of control.

Consider `C(=C(/C=C/c1ccccc1)/C=C/c1ccccc1)C(=C/c1ccccc1)/c1ccccc1`, for which the T/C runs as follows: (endpoint: mean survival time, dose: 12.5 mg/kg/injection, schedule: Q01DX001 (ip), vehicle: saline with Tween-80) 100 % of control; (endpoint: mean survival time, dose: 12.5 mg/kg/injection, schedule: Q01DX009 (ip), vehicle: saline with Tween-80) 91 % of control; (endpoint: mean survival time, dose: 25.0 mg/kg/injection, schedule: Q01DX001 (ip), vehicle: saline with Tween-80) 90 % of control; (endpoint: mean survival time, dose: 50.0 mg/kg/injection, schedule: Q01DX001 (ip), vehicle: saline with Tween-80) 92 % of control; under setting [6], 86 % of control.

In the case of `O=C(O)CC(Nc1sc([N+](=O)[O-])cc1[N+](=O)[O-])C(=O)O` (stereo not drawn), the T/C by setting is: under setting [3], 98 % of control; under setting [4], 105 % of control; under setting [5], 102 % of control.

Take `c1ccc(CCc2nc3ccccc3o2)cc1`: the T/C by setting is: under setting [8], 98 % of control; under setting [9], 102 % of control; (endpoint: mean survival time, dose: 400.0 mg/kg/injection, schedule: Q04DX003 (ip), vehicle: saline with Tween-80) 93 % of control.

In the case of `O=NC1C2C=CC(C2)C1Cl` (stereo not drawn), the T/C (endpoint: mean survival time, dose: 100.0 mg/kg/injection, schedule: Q01DX001 (ip), vehicle: saline) is 93 % of control; the T/C (endpoint: mean survival time, dose: 200.0 mg/kg/injection, schedule: Q01DX001 (ip), vehicle: saline) was 88 % of control; the T/C (endpoint: mean survival time, dose: 400.0 mg/kg/injection, schedule: Q01DX001 (ip), vehicle: saline) is 96 % of control.

For the compound `CC(C)(C)c1ccc(O)c(C(=O)N/N=C/c2ccccc2O)c1`, the T/C reads like this: under setting [3], 97 % of control; under setting [4], 104 % of control; under setting [5], 93 % of control.

Regarding `CC1(C)CC(C)(OC(=O)c2ccccc2)[N+]([O-])=N1` (stereo not drawn), the T/C by setting is: under setting [10], 100 % of control; under setting [11], 98 % of control; (endpoint: mean survival time, dose: 100.0 mg/kg/injection, schedule: Q01DX009 (ip), vehicle: Klucel (hydroxypropylcellulose) (HPC)) 98 % of control; (endpoint: mean survival time, dose: 200.0 mg/kg/injection, schedule: Q01DX009 (ip), vehicle: Klucel (hydroxypropylcellulose) (HPC)) 95 % of control; (endpoint: mean survival time, dose: 400.0 mg/kg/injection, schedule: Q01DX009 (ip), vehicle: Klucel (hydroxypropylcellulose) (HPC)) 98 % of control.

On to `Nc1nc2c(ncn2-c2cccc(NC(=O)c3cc(S(=O)(=O)F)ccc3Cl)c2)c(=O)[nH]1`, for which the T/C runs as follows: under setting [3], 88 % of control; under setting [4], 94 % of control; under setting [5], 94 % of control.

As to `O=C1CN(c2ccc3ccccc3c2)NO1`, the T/C is 93 % of control under setting [8] and 93 % of control under setting [9].

Regarding `O=c1[nH]c2cnn(-c3ccccc3)c2[nH]1`, the T/C by setting is: under setting [3], 97 % of control; under setting [4], 97 % of control; under setting [5], 93 % of control.

With `CCSCCCCO`, the T/C reads like this: (endpoint: mean survival time, dose: 75.0 mg/kg/injection, schedule: Q04DX003 (ip), vehicle: saline) 97 % of control; (endpoint: mean survival time, dose: 150.0 mg/kg/injection, schedule: Q04DX003 (ip), vehicle: saline) 103 % of control; (endpoint: mean survival time, dose: 300.0 mg/kg/injection, schedule: Q04DX003 (ip), vehicle: saline) 98 % of control.

In the case of `CCOC(=O)C(C(=O)OCC)c1cc(NC(=O)c2ccccc2)ccc1NC(=O)c1ccccc1`, the T/C was 87 % of control under setting [7] and 93 % of control (endpoint: mean survival time, dose: 400.0 mg/kg/injection, schedule: Q01DX009 (ip), vehicle: saline with Tween-80).

With `O=C(CCl)Nc1ccc(Cl)cc1`, the T/C is, setting by setting: under setting [10], 97 % of control; under setting [11], 96 % of control; (endpoint: mean survival time, dose: 50.0 mg/kg/injection, schedule: Q04DX003 (ip), vehicle: Klucel (hydroxypropylcellulose) (HPC)) 97 % of control; (endpoint: mean survival time, dose: 100.0 mg/kg/injection, schedule: Q04DX003 (ip), vehicle: Klucel (hydroxypropylcellulose) (HPC)) 100 % of control; under setting [8], 106 % of control.
